Drawing on patent US6893830B1, “Method of screening oxysterol activation of LXRα” (The Board of Regents of the University of Texas System, priority 1996, dated 2005), this text covers EC50 for 1 compound.

Structures are written as SMILES. pEC50: −log10 of the molar value.

In the test the target is T1, LXRα (Homo sapiens, UniProt Q13133).
T1 sequence (Q13133 1-447): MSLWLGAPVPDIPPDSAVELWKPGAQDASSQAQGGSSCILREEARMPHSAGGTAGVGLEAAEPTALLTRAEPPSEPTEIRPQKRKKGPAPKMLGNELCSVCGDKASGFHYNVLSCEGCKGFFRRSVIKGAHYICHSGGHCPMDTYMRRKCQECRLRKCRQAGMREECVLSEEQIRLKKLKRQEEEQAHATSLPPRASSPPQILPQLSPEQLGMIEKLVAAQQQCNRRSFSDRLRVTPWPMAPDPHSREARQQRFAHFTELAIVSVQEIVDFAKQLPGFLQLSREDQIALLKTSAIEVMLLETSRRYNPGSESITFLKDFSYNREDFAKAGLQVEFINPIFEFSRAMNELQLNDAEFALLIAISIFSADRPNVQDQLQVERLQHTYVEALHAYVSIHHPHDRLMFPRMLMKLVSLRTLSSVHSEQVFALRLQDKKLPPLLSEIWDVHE
T1 sequence (P19793 1-462 partner): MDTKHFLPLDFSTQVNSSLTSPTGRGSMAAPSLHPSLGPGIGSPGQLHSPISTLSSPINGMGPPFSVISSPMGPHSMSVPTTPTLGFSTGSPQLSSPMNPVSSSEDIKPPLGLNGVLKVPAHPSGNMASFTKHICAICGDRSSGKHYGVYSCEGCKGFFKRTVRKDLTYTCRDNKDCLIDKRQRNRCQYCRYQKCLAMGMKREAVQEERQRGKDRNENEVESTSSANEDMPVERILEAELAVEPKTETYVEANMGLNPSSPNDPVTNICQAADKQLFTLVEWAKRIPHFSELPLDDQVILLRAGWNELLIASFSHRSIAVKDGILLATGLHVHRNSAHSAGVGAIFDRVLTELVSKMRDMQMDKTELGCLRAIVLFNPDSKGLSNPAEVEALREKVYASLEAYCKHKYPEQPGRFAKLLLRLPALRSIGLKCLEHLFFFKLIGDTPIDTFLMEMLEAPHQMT
In words: LXRα cotransfection assay with TK-LXREx3-LUC reporter in CV-1 cells. The test is classed as cell-based. Set-up: expressed in transfected cells; host or cells: CV-1 monkey kidney cells. The protocol:
FIG. 1 Human LXRα is activated by gonad sterols. (A) Transactivation of LXRα ligand binding domain (LBD) with testis extract. CV-1 cells were cotransfected with a GAL4 responsive luciferase reporter plasmid and an expression plasmid encoding no receptor or a chimeric receptor composed of the GAL4 DNA binding domain fused to the LXRα ligand binding domain (LBD) (GAL4-LXRα)^3. After transfection, cells were treated with ethanol (ETOH) or 1% of the concentrated testis extract. (B) Transactivation of LXRα with follicular fluid meiosis activating substance (FF-MAS). CV-1 cells were cotransfected with an LXRα responsive reporter plasmid and the receptor expression plasmids for LXRα alone or with RXRα. After transfection, cells were treated with ETOH or […] FF-MAS.
FIG. 2 LXRα is activated by a specific subset of oxysterols. (A) Specificity of LXRα activators. Shown is a representative group from 70 compounds evaluated for LXRα activity (10 μM) in cotransfection assays as described in FIG. 1B. […] (B) The the structure-activity relationship of LXRα activators. Data compiled from FIG. 2A and other experiments (not shown) reveal that the position of the hydroxyl on the cholesterol backbone is a determinant of LXRα activity. […] Dose response curves for LXRα activators were generated in CV-1 cell cotransfection assays as described in FIG. 1B.
Organic extraction of breeding bull testis was performed as described^6. Briefly, 12 grams of lyophilized testis was extracted with N-heptane and lipids were concentrated by roto-evaporation. Aliquots representing 1% of this material were assayed. FF-MAS was synthesized as described^18. Transient transfections in CV-1 monkey kidney cells were performed in triplicate in 48-well plates as described^3 with media containing 5% cabosil-treated calf bovine serum.
Transfections were performed in FIG. 1A using 80 ng of TK-MH100x4-LUC reporter and 30 ng of CMX-GAL4-hLXRα expression plasmids per well; and in FIG. 1B using 50 ng of TK-LXREx3-LUC reporter and 25 ng of CMX-hLXRa alone or with 25 ng CMX-hRXRa expression plasmids per well. Candidate ligands were dissolved in ethanol and added 8 hours post-transfection. As an internal standard, 50 ng of CMX-β gal was included in all transfections. All plasmid constructs and determinations of luciferase and β-galactosidase activities have been described^3. To construct CMX-LXRα, the hLXRα cDNA insert was excised from the plasmid pXR2DRV (Willy, et al., 1995, Genes Dev. 9: 1033-1045) with Kpnl and BamHI and was ligated into the expression vector CMX. CMX-βgal was constructed by ligating the β-galactosidase gene into the expression vector CMX. Chimeric Gal4-receptor expression plasmid (CMX-GAL4-LXRα) was constructed by first ligating the GAL4 portion of pSC424 (Sadowski, I. and M. Ptashne, 1989, Nucleic Acids Res. 19: 7539-7530) into the HindIII/SacI sites of pCMX (Umesono, et al., 1991, Cell 65: 1255-1266) to create pCMX-GAL4. This vector contains the CMV promoter fused to the coding sequence for GAL4 (1-147), followed by inframe polylinker cloning sites and translational stop codons. The cDNAs encoding the ligand-binding domain (LBD) of hLXRα (amino acids 166-447) was then ligated into the polylinker to create CMX-GAL4-LXRα.
Reporter plasmids for these studies were constructed by ligating the appropriate oligonucleotides into the HindIII site of the TK-LUC vector to create TK-LXREx3-LUC, TK-MH100x4-LUC (Kang, T., et al., 1993, J. Biol Chem. 268: 9629-9635). The sense strand of the LXRE oligonucleotide used to construct the reporter plasmid TK-LXREx3-LUC was 5′agctt[…]3′ (SEQ. ID. NO. 1). All constructs were verified by sequencing. Data are presented as relative light units (RLUs) and represent the mean of triplicate assays±standard error. […]

Turning to `CC(C)CC[C@@H](O)[C@@H](C)[C@H]1CC[C@H]2[C@@H]3CC=C4C[C@@H](O)CC[C@]4(C)[C@H]3CC[C@]12C` [22(R)-hydroxycholesterol], the pEC50 – broadly, the EC50 on a negative log10 scale, so that one unit is a factor of ten – was 5.82.
